Earlier results in US20220347065A1, “ANTIPERSPIRANT EMULSION” (Conopco, Inc., d/b/a UNILEVER, priority 2019, published 2022).

Tested on: Staphylococcus epidermidis
Conditions: 80% or greater reduction in growth, 16 to 24 hours at 37° C.

Row | SMILES | MIC
1 | CCO [ethanol] | greater than 1 mg·ml^−1
2 | Oc1cc(Cl)ccc1Oc1ccc(Cl)cc1Cl [triclosan, 2′,4,4′-trichloro,2-hydroxy-diphenyl ether] | 0.01 to 10 µg/mL
3 | CC(C)=CCCC(C)=CCCC(C)=CCO [farnesol, 3,7,11-trimethyldodeca-2,6,10-trienol] | ca. 25 μg·ml^−1
